According to patent US7465716B2, “Targeted drug delivery with a hyaluronan ligand” (The Regents of the University of California, priority 1999, dated 2008):

Assays:
[1] = test system: B16-F10 tumor nodules in the lung; assay: Dose response on B16-F10 lung tumor nodules (Table 6); assay type: in vivo, C57/BI6 mice
Procedure: In this experiment groups of 10 animals were inoculated with the tumor cells on day zero and treated with the various formulations on day 6 as described above. To keep the lipid concentration constant as the dose of liposome encapsulated drug was reduced, HAL-Dox formulations were diluted with empty DSPG liposome (HSPC:Chol:DSPG 60:40:9 mole ration) to maintain the total lipid concentration at 1 micromole.

[2] = test system: B16-F10 tumor nodules in the lung; assay: Effect of liposome composition on B16-F10 lung tumor nodules (Table 5); assay type: in vivo, C57/BI6 mice; conditions: Doxorubicin 3 mg/kg on day 6, 10 mice/group
Procedure: As shown above, the presence of the targeting hyaluronan lipid, the type of lipid anchor that the hyaluronan was attached to and the lipid composition of the targeted liposomes influenced the anti-tumor effect. In this example, doxorubicin was encapsulated in liposomes of different compositions (described below in the liposome preparation) and injected into C57/BI6 mice at a dose of 3 mg/kg on day 6 after the mice had received the B16-F10 tumor as described above.
A specific, non-limiting example of doxorubicin loaded lipsome preparation involves thin lipid film hydration followed by sonication and extrusion. Briefly, the lipid components were weighed and dissolved in chloroform at the desired molar ratio(POPC:Chol:HA4-POPE:aT 60:40:3:0.1; POPC:Chol:POPG:aT 60:40:9:0.1; HSPC:Chol:PEG-DSPE:aT 56.2:38.3:5.3:0.1; HSPC:Chol:DPPG:aT 56.2:38.3:5.3:0.1; HSPC:Chol:HA4-DPPE:aT 56.2:38.3:5.3:0.1). […] Phospholipid concentration was determined by a phosphorous assay. DOX concentrations were determined by measurement of absorbance at 480 nm (using a molar coefficient=12,500) after solubilization of the liposomes in 90% isopropyl alcohol containing 0.075 M HCl. […] For both POPC and HSPC liposomes, mean vesicle diameter as measured by dynamic light scattering using the multimodal program was 120-150 nm (SD<35% of the mean) with a monodisperse particle size distribution. […]

B16F10 lung tumors = assay: Chemotherapy of mice with B16F10 lung tumors (Table 4); assay type: in vivo, C57/BL6 mice; conditions: treated day 6, counted day 14, N = 9; HAL-dox and POPG-dox at 8 mg/kg
Procedure: The drug delivery systems of this invention can be tested in the B16F10 lung metastases model. The number of B16F10 tumor nodules was enumerated in the lung of syngeneic C57/BL6 mice 14days after intravenouss injection into the tail vein of 1×10^5, 3×10^5 and 1×10^6 B16F10 cells/mouse in a volume of 0.2 mL PBS. These cell numbers were used because they span the range reported to give a countable number of nodules in previous investigations. The animals were sacrificed and the lungs were removed 14 days post inoculation of B16F10 cells, and then fixed in Bouin's solution. The visible tumor nodules were assessed and counted under dissecting microscope. N=9 per group. The dose of 3×10^5 cells/mouse yielded a suitable number of nodules to provide an adequate statistical analysis. […] The distribution of hyaluronanliposomes in B16F10 tumorial mice was measured on day 14 after innoculation. […] The animals (n=7) were sacrificed 3 hours after injection, the organs removed, the lungs were fixed in Bouin's solution and the radioactivity in each organ determined by gamma scintillation spectroscopy (Table 3).
The chemotherapeutic efficacy of doxorubicin delivered in various forms in the B16F10 lung tumor model was compared by counting the nodules on day 14 after innoculation of mice with B16F10. […] The animals were sacrificed and tumor nodules: counted on day 14. […]

CV-1 cells = assay: Chemosensitivity assay (SRB staining), CV-1 cells; assay type: cell-based, monkey; conditions: compared with B16F10 cells / free DOX
Description: FIGS. 5A and 5B show the DOX dose dependence cytotoxicity determined after treatment of B16F10 and CV-1 cells with non-encapsulated DOX and DOX-loaded HAL. […] To examine the specificity of the HAL we treated CV-1 cells with the three formulations. CV-1 cells express a very low level of CD44. […] Furthermore, the cytotoxicity of both the HAL and POPG liposomes was. similar, confirming the low interaction of the liposomes with CV-1 cells.
The cytotoxic effect of free DOX or Liposomes-encapsulated DOX on the cells was assayed colorimetrically by the sulforhodamine B (SRB) staining. A sample containing 16,000 B16F10 or 25,000 CV-1 cells (from an exponentially growing culture) in 100 μl aliquots were plated onto 96-well flat bottom microtiter plates. The culture plates were incubated for 24 hours at 37° C. and 5% CO2 and then the medium in each well was replaced with 100 μl serum-free and antibiotic-free medium containing various concentration of free or liposome-encapsulated DOX. For each 10-fold increase in drug concentration, four drug concentration levels were tested. […] The cultures were incubated at 4° C. for 1 h and then washed and analyzed for SRB staining of the monolayers as described. The measurement of the absorbance of the SRB at 564 nm in the monolayers was determined by an Optimax microplate reader (Molecular Devices, Sunnyvale, Calif.). […]

[3] = 0.3 mg/kg, HAL-Dox = HAL-DPPE encapsulated Dox
[4] = 1 mg/kg, HAL-Dox = HAL-DPPE encapsulated Dox
[5] = 3 mg/kg, HAL-Dox = HAL-DPPE encapsulated Dox
[6] = 10 mg/kg, treated day 6, groups of 10

COc1cccc2c1C(=O)c1c(O)c3c(c(O)c1C2=O)C[C@@](O)(C(=O)CO)C[C@@H]3O[C@H]1C[C@H](N)[C@H](O)[C@H](C)O1 [free DOX, Doxorubicin]
# nodules Mean [1, 3]: 248.1 ± 56.9 | # nodules Median [1, 3]: 250.5 | # nodules Mean [1, 4]: 265.9 ± 34.5 | # nodules Median [1, 4]: 277 | # nodules Mean [1, 5]: 208.2 ± 82.1 | # nodules Median [1, 5]: 191 | # nodules Mean [1, 6]: 157.9 ± 70.6 | # nodules Median [1, 6]: 151 | # nodules Mean [2]: 171.60 ± 71.79 | # nodules Median [2]: 179 | # nodules Mean (B16F10 lung tumors): 56.11 ± 49.48 | # nodules Median (B16F10 lung tumors): 45 | cytotoxicity to CV-1 cells (in words) (CV-1 cells): significantly lower
